This note sets out measurements from patent US20220184025A1, “NOVEL DEPSIDE DIMERIC COMPOUNDS FOR SKELETAL MUSCLE MODULATION, METHODS AND USES THEREOF” (SOCIETE DES PRODUITS NESTLE S.A., priority 2019, published 2022).

The test concerns mouse hindlimb muscles. The test can be described thus: In vivo muscle regeneration after cardiotoxin injury. The settings on record: mice, oral gavage 100 mg/kg body weight once a day from one week before cardiotoxin injury; muscles harvested 5 days after the injury; vs. water control. The protocol: Early phase of expansion and subsequent phase of myogenic differentiation of Muscle Stem Cells were evaluated by counting the number of Pax7+ cells (A) and myogenin+ cells (B), respectively. Data are expressed as number of cells per area of injured muscle. The size of each newly formed myofiber (C) has been measured based on the expression of the eMHC and laminin that allow to recognize and delineate these nascent myofibers. Results are shown as mean myofiber cross-sectional area (μm2).
In order to reproduce the physiological process of muscle regeneration that occurs in adult skeletal muscles in response to injury or disease, we performed an intramuscular injection of cardiotoxin into mouse hindlimb muscles. One week prior to the induction of the muscle injury, mice were given by oral gavage diffractaic acid (at 100 mg/kg body weight) vs. water control. Mice were treated once a day until the end of the experiment. To evaluate the efficiency of the muscle regeneration, muscles that have been previously injured were harvested 5 days after the injury and cryosections were prepared. Several myogenic markers were then measured. […]
Data are expressed as number of cells per area of injured muscle. The size of each newly formed myofiber (FIG. 10C) has been measured based on the expression of the eMHC and laminin that allow to recognize and delineate these nascent myofibers. […]

`COc1cc(C)c(C(=O)Oc2cc(C)c(C(=O)O)c(O)c2C)c(OC)c1C` [Diffractaic acid, Benzoic acid, 2,4-dimethoxy-3,6-dimethyl-, 4-carboxy-3-hydroxy-2,5-dimethylphenyl ester]: the “in vivo muscle regeneration process” value is “able to promote the in vivo muscle regeneration process”.
